Measured values reported in PubChem BioAssay AID1996.
Converted amounts (≈) assume the structure as drawn.

Conditions: buffer; pH 7.4; 200.0 µM

SMILES | solubility kinetic
O=C(O)Cn1cc(CN2CCOCC2)c2ccccc21 | 30 µg/mL (≈ 109 µM)
N#CCN1C(=O)C(=O)N(Cc2cccc(C(F)(F)F)c2)C1=O | 42.6 µg/mL (≈ 137 µM)
CCCN1CCC(NC(=O)Cc2ccccc2OC)CC1 | 43.5 µg/mL (≈ 150 µM)
Cc1cc(OCCCCCn2ccnc2)cc(C)c1Cl.Cl | 23.1 µg/mL
O=C(c1ccc(-n2cccc2)cc1)N1CCCCC1 | > 38.1 µg/mL
C#CCN(CC=C)C(=O)c1ccc2nc(C3CCCCC3)oc2c1 | 43.5 µg/mL (≈ 135 µM)
COc1ccc(C(CC(=O)O)N2C(=O)CCC2=O)cc1 (stereo not given) | > 41.6 µg/mL
Cc1cccc(NC(=O)c2ccc3c(c2)OCCO3)c1 | 35.5 µg/mL (≈ 132 µM)
O=C1CC(Sc2ccc(Cl)cc2)C(=O)N1Cc1ccncc1 (stereo not given) | 18.9 µg/mL (≈ 56.8 µM)
Cc1ccc(Cl)c2sc(NC(=O)C3=COCCO3)nc12 | 1.1 µg/mL (≈ 3.54 µM)
Cc1ccc(C(=O)CCC(=O)Nc2ccccc2C)cc1C | < 0.6 µg/mL
COC(=O)c1cccnc1Oc1ccccc1 | 26.5 µg/mL (≈ 116 µM)
Cc1ccc(/C=C/C(=O)NC2CCS(=O)(=O)C2)cc1 (stereo not given) | 40.2 µg/mL (≈ 144 µM)
CNC(=O)c1cnc(-c2ccccc2)nc1-c1ccccc1 | 14.8 µg/mL (≈ 51.2 µM)
CCN(CC)C(=O)c1ccc(CS(=O)(=O)Cc2ccccc2)cc1 | > 51.8 µg/mL
CC(C)c1ccc(CNC(=O)C(=O)NCC2CCCO2)cc1 (stereo not given) | 28.5 µg/mL (≈ 93.6 µM)
CCC(C)NC(=O)C1c2ccccc2C(=O)N1Cc1ccc(F)cc1 (stereo not given) | > 51.1 µg/mL
O=P([O-])(CN1CCCCCC1)C1Cc2ccccc2C1 | 43.7 µg/mL
O=C(CCSCc1ccccc1Cl)NCc1cccs1 | 32.4 µg/mL (≈ 99.4 µM)
CN(C)C(=O)c1cc2cc(Br)ccc2s1 | 7.4 µg/mL (≈ 26 µM)
CCC1CCC(N2CCN(c3cccc(OC)c3)CC2)CC1 (stereo not given) | 32.6 µg/mL (≈ 108 µM)
Cc1cc(OCC(=O)N(C)Cc2ccccc2)ccc1Br | 22.7 µg/mL (≈ 65.2 µM)
O=c1[nH]c(CN2CCOCC2)nc2scc(-c3ccccc3)c12 | 23.9 µg/mL (≈ 73 µM)
O=C(O)c1ccccc1NCc1ccsc1 | > 35 µg/mL

SMILES | solubility kinetic
O=C(CN1C(=O)c2ccccc2S1(=O)=O)c1ccccc1F | 17.8 µg/mL (≈ 55.7 µM)
N#CCCC1CCCC=C1N(Cc1ccccc1)C(=O)C(Cl)Cl (stereo not given) | > 52.7 µg/mL
CCN(CC)c1ccc(CNc2nc3ccccc3n2CC)cc1 | 10.9 µg/mL (≈ 33.8 µM)
S=C(Nc1ccc2nccnc2c1)N1CCCC1 | > 38.8 µg/mL
Cc1cc(C)nc(SCC(=O)Nc2nonc2N)n1 | > 42 µg/mL
CC(=O)CN1C(=O)NC(c2ccccc2)(c2ccccc2)C1=O | 33.9 µg/mL (≈ 110 µM)
COc1ccc(NC(=O)COC(=O)CCSc2ccccc2)cc1 | 10.6 µg/mL (≈ 30.7 µM)
CCOC(=O)c1sc(=NC(=O)c2ccc(OC(C)C)cc2)n(C)c1C | < 0.4 µg/mL
Cc1nc(-c2ccccc2)sc1C(=O)Nc1ccccc1F | 1.8 µg/mL (≈ 5.76 µM)
Cc1ccc(OCC(=O)NCCO)c(Br)c1 | > 43.2 µg/mL
CS(=O)(=O)Cc1ccc(C(=O)N2CCN(C(=O)c3cccs3)CC2)cc1 | > 58.9 µg/mL
COc1ccc2o/c(=N\O)c(C(=O)Nc3ccc(C)cc3)cc2c1 | 11.7 µg/mL (≈ 36.1 µM)
O=C(Nc1ccc(N2CCOCC2)cc1N1CCOCC1)c1ccc(F)cc1 | 42.2 µg/mL (≈ 109 µM)
CC(=O)N1c2ccccc2C(C)=CC1(C)C | 8.1 µg/mL (≈ 37.6 µM)
CC(=O)Nc1ccc(N=Cc2c(O)ccc3ccccc23)cc1 | 7.6 µg/mL (≈ 25 µM)
CCOC(=O)C1=C(C)NC(C)=C(C(=O)OCC)C1C(=O)OCC(=O)NCCc1ccccc1 | > 68.8 µg/mL
Cc1c(C=Nc2ccc(S(=O)(=O)N(C)C)cc2)c(O)[nH]c(=O)c1C#N | 24.7 µg/mL (≈ 68.5 µM)
O=C(COc1ccccc1Cl)N1CCc2ccccc2C1 | 38.7 µg/mL (≈ 128 µM)
COc1ccc(CCNC(=O)c2ccccc2SC)cc1 | 27.4 µg/mL (≈ 90.9 µM)
c1ccc(C2CCC(N3CCN(c4ccccc4)CC3)CC2)cc1 (stereo not given) | 1.3 µg/mL (≈ 4.06 µM)
CCCC(=O)Nc1sc(Cc2ccccc2)c(C)c1C(N)=O | 6.9 µg/mL (≈ 21.8 µM)
O=C(Cn1ccc([N+](=O)[O-])n1)Nc1nc2ccccc2s1 | > 45.5 µg/mL
CCOc1cccc(C(=O)Nc2ccc3ccccc3c2)c1 | < 0.6 µg/mL
CCN(C(=O)COC(=O)c1ccc(O)cc1)c1cccc2ccccc12 | 24.6 µg/mL (≈ 70.4 µM)

SMILES | solubility kinetic
O=C1C2CCCN2C(=S)N1C1CCCCC1 (stereo not given) | > 35.8 µg/mL
C=CCNC(=S)NC(CC(=O)OC)c1ccc2c(c1)OCO2 (stereo not given) | 30.3 µg/mL (≈ 94 µM)
Cc1ccccc1OCc1nc(-c2cccnc2)no1 | 30.2 µg/mL (≈ 113 µM)
CC1SCC(NC(=O)c2ccccc2Cl)CS1 (stereo not given) | > 43.2 µg/mL
O=C(COC(=O)/C=C/c1ccc(S(=O)(=O)N2CCOCC2)cc1)Nc1ccccc1F | 12.5 µg/mL (≈ 27.9 µM)
O=C(/C=C/c1cccc([N+](=O)[O-])c1)OCC(=O)c1ccccc1 | < 0.7 µg/mL
CCOC(=O)C1(Cc2ccccc2)CCCN(C2CCCC2)C1 (stereo not given) | > 47.3 µg/mL
Cc1cc(C)c2nc(SCC(=O)Nc3cc(C)on3)c(C#N)cc2c1 | < 0.2 µg/mL
Cc1ccc(NC(=O)NCCN2CCCCC2)cc1 | > 39.2 µg/mL
COCCNc1nc(SC)nc2sc3c(c12)CCN(C)C3 | 46.5 µg/mL (≈ 143 µM)
C=CCn1c(SCC#N)nnc1-c1ccc2ncccc2c1 | > 46.1 µg/mL
CCOC(=O)c1sc(NC(=O)C2CC(=O)N(c3ccc(OCC)cc3)C2)nc1C (stereo not given) | 9.9 µg/mL (≈ 23.7 µM)
O=C(O)/C=C/C(=O)Nc1ccc2c(c1)C(=O)c1ccccc1C2=O | > 48.2 µg/mL
COc1ccc(NC(=O)c2cc([N+](=O)[O-])ccc2N2CCCCC2)cc1OC | 14 µg/mL (≈ 36.3 µM)
O=C(Nc1ccccc1Cl)Nc1ccccc1Cl | < 0.3 µg/mL
Cc1cccc(NC(=O)COC(=O)COc2ccc3c(c2)CCC3)c1 | 5.7 µg/mL (≈ 16.8 µM)
O=S(=O)(c1ccccc1)N1CCN(C(=S)NCCc2ccccc2)CC1 | 0.5 µg/mL (≈ 1.28 µM)
COC(=O)c1sccc1NC(=O)CNC(=O)c1ccccc1 | > 47.8 µg/mL
Cc1ccc(C)c(OCCCC(=O)NC2CCCCC2)c1 | 3 µg/mL (≈ 10.4 µM)
COc1cccc(/C=C(\CC(=O)O)c2nc3ccccc3s2)c1 | 41.1 µg/mL (≈ 126 µM)
CC(C)COC(=O)n1c(SCC(N)=O)nc2ccccc21 | 16.3 µg/mL (≈ 53 µM)
O=C(Nc1nc2ccccc2[nH]1)C1CCCC1 | 4 µg/mL (≈ 17.4 µM)
O=C(O)[C@@H]1CCCN1C(=O)COc1ccc2c3c(c(=O)oc2c1)CCC3 | > 53.6 µg/mL
O=C(NCc1ccco1)C1CCCN1C(=O)Nc1ccccc1 (stereo not given) | 43.5 µg/mL (≈ 139 µM)

SMILES | solubility kinetic
COC(=O)c1cn(C(=O)c2cccc3ccccc23)c2ccccc12 | < 0.7 µg/mL
[Br-].c1ccc(C[n+]2ccc3ccccc3c2)cc1 | 43.9 µg/mL
Cc1cc(C)nc(SCC(=O)N/N=C/c2cccnc2)n1 | > 45.2 µg/mL
O=C(O)c1cc(-c2ccc(Cl)s2)nc2ccccc12 | 41.5 µg/mL (≈ 143 µM)
O=C(Nc1ccncc1)c1ccc(Br)cc1 | > 41.6 µg/mL
OCCN(CC#CC(O)(c1ccccc1)c1ccccc1)CCO | > 48.8 µg/mL
COc1ccccc1NC(=O)c1ccc(C(=O)c2ccccc2)o1 | 8.8 µg/mL (≈ 27.4 µM)
CC1CCN(C(=O)CN2C(=O)NC(C)(c3ccc4ccccc4c3)C2=O)CC1 (stereo not given) | 5.9 µg/mL (≈ 15.5 µM)
COc1ccc(NC(=O)CN(C)CC(=O)NC2CCCCC2C)cc1 (stereo not given) | 50.2 µg/mL (≈ 144 µM)
CN(C(=O)CCc1nc2ccccc2c(=O)[nH]1)C1CCS(=O)(=O)C1 (stereo not given) | > 52.4 µg/mL
O=C(/C=C/c1ccc(F)cc1)OCC(=O)c1ccc[nH]1 | 2.6 µg/mL (≈ 9.51 µM)
Cc1nnc(SCC(=O)N(C)C2CCCCC2)n1C | > 42.4 µg/mL
Cc1cc(C)c2cc(C(=O)Nc3ccc(C)c(F)c3)[nH]c2c1 | 0.8 µg/mL (≈ 2.7 µM)
Cc1cnc(NC(=O)Cc2ccc(Br)cc2)s1 | < 0.3 µg/mL
Nc1nc(NC(=O)c2ccccc2Cl)nn1-c1ccccc1 | > 47.1 µg/mL
CCOc1ccc(N(C(=O)c2cc3ccccc3oc2=O)C2C=CS(=O)(=O)C2)cc1 (stereo not given) | > 63.8 µg/mL
CSc1nc2ccccc2c(=O)n1C1CCCCC1 | 1 µg/mL (≈ 3.64 µM)
Cc1ccc(S(=O)(=O)CCN2CCN(c3ccccn3)CC2)cc1 | > 51.8 µg/mL
Cc1csc(NC(=O)c2ccc[nH]c2=O)n1 | > 35.3 µg/mL
O=C(COC(=O)c1cc(=O)[nH]c(=O)[nH]1)Nc1ccccc1F | > 46.1 µg/mL
COc1ccc(NC(=O)c2ccc(-c3ccc([N+](=O)[O-])cc3)o2)cc1 | 1.2 µg/mL (≈ 3.55 µM)
COc1ccc(NC(=S)NC(=O)c2ccccc2)cn1 | 35.8 µg/mL (≈ 125 µM)
O=C(O)CC(NS(=O)(=O)c1ccc2c(c1)OCCO2)c1ccccc1[N+](=O)[O-] (stereo not given) | > 61.3 µg/mL
O=C(CNC(=O)c1ccco1)Nc1ccc(Cl)cc1 | 24.1 µg/mL (≈ 86.5 µM)

SMILES | solubility kinetic
COc1ccccc1C(=O)Nc1ccc(Nc2ccccc2)cc1 | < 0.3 µg/mL
CC(=O)c1c(-c2ccccc2)c2ccccc2[nH]c1=O | 15.1 µg/mL (≈ 57.3 µM)
C/C(=N\n1c(C)nc2ccccc2c1=O)c1ccc(N)cc1 | > 43.9 µg/mL
CCOC1=CC(=O)N(Cc2ccccc2)C1 | > 32.6 µg/mL
CCCc1cc(C(=O)Nc2ccc(C(=O)OC)cc2)cs1 | < 0.6 µg/mL
O=C(Nc1ccc(F)cc1)c1ccc2nsnc2c1 | 5.4 µg/mL (≈ 19.8 µM)
COc1ccc(NC(=O)c2ccc(S(=O)(=O)N3CC(C)OC(C)C3)cc2)cc1 (stereo not given) | 7.8 µg/mL (≈ 19.3 µM)
O=S1(=O)CCC(NC(=S)Nc2ccccc2)C1 (stereo not given) | > 40.6 µg/mL
O=C(NCCc1ccc(F)cc1)Nc1ccc([N+](=O)[O-])cc1 | 4.9 µg/mL (≈ 16.2 µM)
Cc1cc(C)n2nc(SCC(=O)N3CC(C)CC(C)C3)nc2n1 (stereo not given) | > 50 µg/mL
O=C(Cn1ccnc1)c1ccc(Cl)cc1 | 31.5 µg/mL (≈ 143 µM)
Cc1c(N=Cc2c(O)n(C)c(=O)[nH]c2=O)c(=O)n(-c2ccccc2)n1C | > 53.3 µg/mL
NC(=O)CN(C/C=C/c1ccccc1)C/C=C/c1ccccc1 | 7.4 µg/mL (≈ 24.2 µM)
Cc1ccc2nc(-c3ccncc3)cc(C(=O)N3CCOCC3)c2c1 | > 50 µg/mL
O=C(COC(=O)c1cc[n+]([O-])cc1)NCc1ccccc1Cl | > 48.1 µg/mL
O=C(O)CSc1ncnc2scc(-c3ccccc3)c12 | > 45.4 µg/mL
Cc1cc(Cl)cc(C)c1OCCn1ccnc1.Cl | > 43.1 µg/mL
Cc1cc(C)c(C#N)c(SC(C(=O)NC(C)(C)C)c2ccccc2)n1 (stereo not given) | < 0.3 µg/mL
O=C(Nc1cccc([N+](=O)[O-])c1)c1ccc2nsnc2c1 | 1.9 µg/mL (≈ 6.33 µM)
Cc1cc(C)c(N2C(=O)CCCC2=O)c(Cl)c1 | > 37.8 µg/mL
CN(CC(=O)Nc1ccccc1C(F)(F)F)C(=O)C1CC1 | > 45 µg/mL
Cc1c(OCC(N)=O)ccc2c(-c3ccccc3)cc(=O)oc12 | 0.9 µg/mL (≈ 2.91 µM)
CSc1ncccc1C(=O)Nc1ncc(C)s1 | 5.7 µg/mL (≈ 21.5 µM)
CSc1ccccc1NC(=O)COC(=O)c1cnc(C)cn1 | > 47.6 µg/mL
